Results as given in US20080214618A1, “Gastric Therapies Amd Compositions Therefor” (Auckland Uniservices Limited, priority 2004, published 2008).

What was measured:
[1] = system: H. pylori; assay: Survival / MBC of H. pylori in standard incubations (40 min, 37° C., pH 7.4); assay type: cell-based, Helicobacter pylori; conditions: for effect on H. pylori viability of each ingredient by itself at low concentration: 0.3 mM FA C12:0, 0.05% Tween 20, 200 μg/ml lansoprazole, each alone
Protocol: FIG. 1 The survival of H. pylori in the presence of: FA C12:0 only (▴); FA C12:0 plus 100 μg/mL lansoprazole ([…]); FA C12:0 plus 200 μg/mL lansoprazole (▪); FA C12:0 plus 300 μg/mL lansoprazole (▾); FA C12:0 plus 400 μg/mL lansoprazole (♦); FA C12:0 plus 0.05% (w/w) Tween 20 (Δ); FA C12:0 plus 100 μg/mL lansoprazole plus 0.05% (w/w) Tween 20 (◯); FA C12:0 plus 200 μg/mL lansoprazole plus 0.05% (w/w) Tween 20 (□). Cells were incubated at pH 7.4 for 40 min at 37° C.
FIG. 2 The effect of lansoprazole on the survival of H. pylori in the presence of 0.05% Tween 20 (▴), and in its absence (Δ). Cells were incubated at pH 7.4 for 40 min at 37° C.
FIG. 4 The effect of monolaurin (MG C12) on survival of H. pylori in the absence (squares) and presence (diamonds) of Tween 80 (0.4%, w/v), after 40 min exposure at 37° C. and initial pH 7.4.
These can be selected from any one or more of capric acid, lauric acid, myristic acid, myristoleic acid, palmitoleic acid, linolenic acid, monolaurin or monomyristin for example. This list is not intended to be limiting. Reference can also be made to Table 1 of Sun et al FEMS Immun. Med. Microbiol. 36, 9-17, 2003 (the disclosure of which is included herein by way of reference). The MBC is the minimum concentration of agent(s) that result(s) in a 5 log units decrease in viable cell numbers.
The effects of combinations of lansoprazole (0-400 μg/mL), 0.05% Tween 20, and FA C12:0 (0.1-1.0 mM) on the viability of H. pylori were examined in standard incubations. The results are shown in FIG. 1, and the MBCs for FA C12:0, with different combinations of lansoprazole and Tween 20, are summarised in Table 1.
Experiments to Examine Possible Interactions Between Monolaurin (MG C12) and Tween 80. The concentration profile of monolaurin on the survival of H. pylori was tested in the presence and absence of 0.4% (w/v) Tween 80, and the results are shown in FIG. 4. MG C12 on its own, has little effect in the range 0-0.3 mM. However in the range 0.3-0.5 mM MG C12 there is a sharp increase in bactericidal potency, and the killing increased by >5 log units (FIG. 4, squares).

[2] = system: Helicobacter pylori in mucus; assay: In vitro mucus/H. pylori test chamber model: survival of H. pylori in pig gastric mucus; assay type: cell-based, Helicobacter pylori (NCTC 11637)
Text: FIG. 3 Diagram of apparatus used to model the mucus layer in digestive tract. This test chamber was designed as an in vitro model to investigate the barrier effect of mucus in protecting H. pylori from agents present in the lumen of the stomach. […] The mucus layer (C2), contains H. pylori, with numbers of colony forming units as specified. It is held as a 1 mm thick disc between the test chamber base (B and C4) and a stainless steel mesh (A and C1). This was then inserted into a Falcon tube containing broth (D). • A. Screw top lid with a recessed top containing a stainless steel grid. • B. Base with recessed well 1 mm deep×10 mm diameter that contains mucus (shaded area—see C2) • C. Cross sectional view of chamber (A & B). 1—stainless steel mesh, 2=mucus, 3=screw top lid, 4=base • D. Chamber in a Falcon tube covered with Iso-sensitest broth (with or without additives). An H. pylori (NCTC 11637) culture was mixed with pig gastric mucus for 40 min, and then H. pylori colonies were re-isolated by dilution and plating. The re-isolated strain was used in the experiments below. PCR of the 16S rDNA piece and sequencing was used to confirm that the re-isolated bacterial strain was H. pylori. H. pylori was grown by plating on Columbia agar (Oxoid) with 5% horse serum (Fort Richard) at 37° C. for 48 h under microaerophilic conditions (80% nitrogen, 15% carbon dioxide, 5% oxygen). Two loops of 48 h agar plate culture were inoculated into pre-warmed (37° C.) Iso-sensitest broth (Oxoid) containing 5% horse serum and incubated for 24 h under microaerophilic conditions. This 24 h H. pylori broth culture (500 μL) was added to 3.5 g of thawed pre-warmed pig gastric mucus (previously frozen at −20° C.) and mixed. […] Final concentrations of surviving H. pylori colony forming units (cfu) were calculated per gram of mucus. […] Abbreviations used are: FA=0.1 or 0.2 mM lauric acid; TW=0.05% Tween 20; OM=0.58 mM omeprazole; NAC=0.245 M N-acetylcysteine. • (a) Calculated H. pylori cfu's initially added per gram of mucus. […]

Row | Compound | effect on H. pylori viability of each ingredient by itself at low concentration [1] | effect of lansoprazole by itself on H. pylori in vitro ([1]; concentrations below 400 μg/mL, Midolo et al observation, confirmed by FIG. 2 (pH 7.4, 40 min, 37° C.)) | killing of H. pylori ([1]; 0.5 mM monolaurin in the absence of Tween 80, 40 min, 37° C., initial pH 7.4) | killing of H. pylori ([1]; 0.5 mM monolaurin with 0.4% Tween 80 present, 40 min, 37° C., initial pH 7.4) | effect of MG C12 on its own on survival of H. pylori ([1]; range 0-0.3 mM MG C12, no Tween 80, 40 min, 37° C., initial pH 7.4) | increase in killing of H. pylori ([1]; range 0.3-0.5 mM MG C12 on its own, 40 min, 37° C., initial pH 7.4) | effect of FA on its own on H. pylori survival in mucus ([2]; 0.1 mM FA experiment) | H. pylori numbers (cfu per g mucus) using 0.1 mM FA ([2]; 0.1 mM lauric acid, TW=0.05% Tween 20, OM=0.58 mM omeprazole, NAC=0.245 M N-acetylcysteine, 40 min, 37° C., pH 7.0, broth-alone control 1.29 × 10^6) | H. pylori numbers (cfu per g mucus) using 0.2 mM FA ([2]; 0.2 mM lauric acid, TW=0.05% Tween 20, OM=0.58 mM omeprazole, NAC=0.245 M N-acetylcysteine, 40 min, 37° C., pH 7.0, broth-alone control 2.64 × 10^4) | MBC ([1]; Helicobacter pylori, 40 min, MBC of FA C12:0 in medium with the stated additions, 40 min incubation with H. pylori at 37° C. and pH 7.4, MBC = concentration giving 5 log units decrease in viable cells, read-out: MBC (minimal bactericidal concentration of FA C12:0))
1 | Cc1c(OCC(F)(F)F)ccnc1C[S+]([O-])c1nc2ccccc2[nH]1 (centres unmarked) [lansoprazole, reference compound] | no effect | little effect | – | – | – | – | – | – | – | –
2 | CCCCCCCCCCCC(=O)OCC(O)CO (centres unmarked) [MG C12, monolaurin] | – | – | > 5 logs | 3 logs | little effect | > 5 log units | – | – | – | –
3 | CCCCCCCCCCCC(=O)O [FA C12:0, lauric acid] | no effect | – | – | – | – | – | minimal effect | 1.85 × 10^5 cfu per g mucus | 2.59 × 10^4 cfu per g mucus | 1000 µM
